Measurements from patent US20200138921A1, “METHODS OF PREVENTING AND TREATING DISEASES CHARACTERIZED BY SYNAPTIC DYSFUNCTION AND NEURODEGENERATION INCLUDING ALZHEIMER'S DISEASE” (The Trustees of Columbia University in the City of New York, priority 2017, published 2020).

What was measured:
[1] = system: NMDAR1; test: Western blot of NMDAR1 in hippocampal neurons; type: cell-based, rat; conditions: neurons pretreated with 300 nM TOP, oAβ for 24 hours
Protocol: (§1) Whole frozen mouse hippocampi, human brain specimens, and cultured cells were homogenized in RIPA buffer (ThermoFisher) supplemented with protease and phosphatase inhibitor cocktail (ThermoFisher), using a Teflon dounce homogenizer and centrifuged at 14,000 rpm for 10 minutes at 4° C. Supernatants were collected, normalized by BCA assay (ThermoFisher), and prepared for loading using sample buffer (SB) 4× (ThermoFisher) and dithiothreitol (DTT) 10× (ThermoFisher).
To further test whether increasing Ube3A could rescue the effects of oAβ, cultured primary hippocampal neurons (14 DIV) were pretreated with 300 nM of TOP or control PBS. The neurons were then treated with oAβ for 24 hours, and whole cell lysates prepared for Western blot analysis, or fixed for microscopy.
Cells were also assessed for localization of PSD95 and NMDAR1, markers of postsynaptic terminals. Cells treated with TOP had increased levels of PSD95 and NMDAR1 (FIGS. 11B and 11C).

[2] = system: wild-type mice; test: Morris water maze in wild-type mice; type: in vivo; conditions: single TOP injection 275 μg, vs PBS-injected mice
Protocol: (§2) Mice were trained to find a hidden platform in a circular pool of 1.10 m diameter located in a room with extra maze cues. The location of the platform ([…] diameter) was constant for each mouse during training and was placed 1 cm beneath the surface of the water, maintained at 24° C.±2° C. throughout the duration of the test. At the end of test, the mice were dried off and placed in a clean cage with extra paper towels to prevent hypothermia Animals were then monitored inside their cage until eating, drinking, and ambulating normally Mice were trained in sessions consisting of four trials a day for five consecutive days. Mice started from different quadrants on a random basis during each trial and all four quadrants were used on any given day. The maximum swimming time allowed on each trial was 60 seconds.
(§3) Probe trials (1 session: 1 trials/session) were conducted 24 hours after the last training trial. During the probe test the platform was removed and mice were free to swim in the pool for 60 seconds. Time spent in each quadrant was measured. Trial and probe test sessions were recorded and analyzed with a video tracking system (Noldus). After the probe, mice were tested in the visible test for two consecutive days, 2 sessions/day with 3 trials/session to assess whether the mice were able to locate a visible platform (its location varied between the three trials of the same session). […]

[3] = system: Ube3A; test: Ube3A protein in hippocampus of J20 AD mice; type: in vivo; conditions: single bilateral TOP injection 275 μg at 9-10 months, measured at 11-12 months
Excerpt: (§4) The J20 transgenic mouse line also used in the studies expresses a mutated human APP (hAPP: K670N/M671L and V717F) under the control of the platelet-derived growth factor promoter (Mucke et al. 2000). These mice have deficits in learning and memory, inhibition of long-term potentiation, loss of dendritic spines, profuse amyloid plaques, and increased phosphorylation of the tau protein. These mice also have increased RhoA-GTP activity and progressive decrease in spinal density when treated with oligomeric Aβ. See Pozueta et al. 2013.
as §1
Controls were wild-type mice and J20 mice injected with PBS.

[4] = system: J20 mice; test: Morris water maze in J20 AD mice; type: in vivo; conditions: single TOP injection 275 μg
Excerpt: as §4, §2
as §3, with “session). The ability of the mice to locate a clearly visible platform was also tested in order to exclude differences in vision, swim speed, and motivation.” for “session).”

[5] = system: phospho-tau; test: Western blot of phospho-tau in J20 mice; type: in vivo; conditions: TOP treated J20 mice vs control J20
Excerpt: All chemicals used were of the highest grade available. Antibodies used include the following: rabbit anti-Ube3A (Cell Signaling), mouse anti-RhoA (Santa Cruz), rabbit anti-Arc (Santa Cruz), mouse anti-GluR1 (Millipore), rabbit anti-Ephexin-5 (Pierce and Abcam), rabbit anti-phospho-c-Abl (Cell Signaling), rabbit anti-GAPDH (Cell Signaling), rabbit anti-HA (Cell Signaling), anti-PSD95 (Cell Signaling), rabbit anti-NMDAR1 (Millipore), and anti-phospho-tau PHF13 (Cell Signaling).
as §1

[6] = system: Ube3A; test: Immunoprecipitation of HA-Ube3A and phospho-tyrosine immunoblot in B35 cells; type: cell-based, rat; conditions: B35 cells overexpressing HA-tagged Ube3A, as early as 1 hour
Protocol: Hippocampal neuron cultures from both male and female rat embryos (E17-18) were prepared following a slightly modified version of the method of Brewer et al. 1996. Hippocampal neurons were kept in culture at 37° C. with 5% CO2 in Neurobasal medium (ThermoFisher) with B27 (ThermoFisher) supplement and Glutamax (ThermoFisher) and plated at a density of 2.5×10^5 cell/ml on dishes coated with poly-D-lysine (ThermoFisher). For the experiments, neurons were used after 14-21 days in vitro (DIV). Rat neuroblastoma B35 cells were cultured and maintained in DMEM (ThermoFisher) supplemented with 10% fetal bovine serum (FBS; Invitrogen) and Glutamax (ThermoFisher).
Cells were collected and homogenized with IP lysis buffer (ThermoFisher) supplemented with Halt protease and phosphatase inhibitor (ThermoFisher). Cell extracts were incubated overnight at 4° C. with 1.0 μg HA antibody (Cell Signaling) or mouse IgG (Cell Signaling) as a negative control Immunocomplexes were incubated with magnetic beads covalently coated with protein G (Invitrogen) on a rotator for 2 hours, at 4° C. The beads were then pelleted with a magnet and washed 3 times with 1× cell lysis buffer (Cell Signaling) supplemented with complete mini protease inhibitor mixture (Roche). The immunocomplexes were resuspended in cell lysis buffer, LDS-sample buffer (Invitrogen), […] dithiothreitol (DTT), and analyzed by Western blotting. […]

[7] = system: Arc; test: Western blot of Arc in hippocampal neurons; type: cell-based, rat; conditions: Aβ for 8-10 hours
Protocol: as §1
(§5) As observed in the Tg2576 mice hippocampi, the levels of Ube3A inversely correlated with the levels of Arc and Ephexin-5. To determine whether this correlation was also observed in hippocampal neurons, the cells were treated with Aβ for 8-10 hours, and whole cell lysates were collected for Western blot analysis.

[8] = system: p53; test: Western blot of p53 in hippocampal neurons; type: cell-based, rat; conditions: Aβ for 8-10 hours
Protocol: as §1, §5

[9] = system: Lfc; test: Levels or activities of Lfc in hippocampal neurons; type: cell-based, rat; conditions: hippocampal neurons treated with oAβ (results not shown)

Compound	levels of NMDAR1 [1]	memory (Morris Water Maze) [2]	levels of Ube3A in the hippocampus [3]	learning (Morris water maze latency to platform) [4]	memory (Morris water maze time in target quadrant) [4]	motor functions or motivation ([4]; speed and time to platform)	phospho-tau levels [5]	phospho-tyrosinated Ube3A (pTyr-Ube3A) [6]	levels of Arc protein [7]	levels of p53 [8]	levels or activities of Lfc [9]
CC[C@@]1(O)C(=O)OCc2c1cc1n(c2=O)Cc2cc3c(CN(C)C)c(O)ccc3nc2-1 [TOP, topotecan]	increased	significant enhancement	increased	did not affect	significantly increased	no effect	decreased	–	–	–	–
oAβ: synthetic soluble oligomeric Aβ1-42	–	–	–	–	–	–	–	significant increase	significant increase	did not show any altered levels	no observation of any differences
